Data set [1] deals with A-549 cells. Nature of the data set: Antiproliferative assay, A-549. The format is cell-based. As to conditions: Homo sapiens, A549; A-549 lung cancer cell line; read-out: Antiproliferative activity IC50 ± SEM, A-549. How it is done:
(§1) 4.2.2. Assay for antiproliferative effect
(§2) To explore the antiproliferative potential of compounds propidium iodide fluorescence assay was performed using different cell lines such as Panc-1 (pancreas cancer cell line), MCF-7 (breast cancer cell line), HT-29 (colon cancer cell line) and A-549 (epithelial cancer cell line), respectively. To calculate the total nuclear DNA, a fluorescent dye (propidium iodide, PI) is used which can attach to the DNA, thus offering a quick and precise technique. PI cannot pass through the cell membrane and its signal intensity can be considered as directly proportional to quantity of cellular DNA. Cells whose cell membranes are damaged or have changed permeability are counted as dead ones. The assay was performed by seeding the cells of different cell lines at a density of 3000-7500 cells/well (in200μl medium) in culture plates followed by incubation for 24h at 37 °C in humidified 5%CO2/95% air atmospheric conditions. The medium was removed; the compounds were added to the plates at 10 μM concentrations (in 0.1% DMSO) in triplicates, followed by incubation for 48h. DMSO (0.1%) was used as control. After incubation, medium was removed followed by the addition of PI (25 μl, 50μg/mL in water/medium) to each well of the plates. At - 80 °C, the plates were allowed to freeze for 24 h, followed by thawing at 25 °C. A fluorometer (Polar-Star BMG Tech) was used to record the readings at excitation and emission wavelengths of 530 and 620 nm for each well. The percentage cytotoxicity of compounds was calculated using […]
(§3) Where ATC= Absorbance of treated cells and AC= Absorbance of control. Erlotinib was used as positive control in the assay.

Data set [2] is described as follows: Cell viability assay (MTT) on normal mammary epithelial cells. The format is cell-based, human. As to conditions: human, MCF-10A normal mammary gland epithelial cells, MCF-10A normal cells, 4 days incubation. The method, then: This test investigates the effects of the new compounds 3–16 on normal cell lines to determine their safety. The normal human mammary gland epithelial (MCF-10 A) cell line was used to test the viability of the tested compounds. After 4 days of incubation on MCF-10 A cells within 50 µM of each investigated compound, cell viability was determined using the MTT assay ([Gomaa et al., 2020]; [Marzouk et al., 2020]).
The normal human mammary gland epithelial (MCF-10A) cell line was used to test the viability of the tested compounds. After 4 days of incubation on MCF-10A cells within 50 µM of each investigated compound, cell viability was determined using the MTT assay ([Gomaa et al., 2020]; [Marzouk et al., 2020]). Refer to Supplementary Appendix SA1 (supp. File) for more details.
4.2. Biological evaluation
4.2.1 Cell Viability assay (MTT assay)
MTT assay was performed to investigate the effect of the synthesized compounds on mammary epithelial cells (MCF-10A). The cells were propagated in medium consisting of Ham's F-12 medium/ Dulbecco's modified Eagle's medium (DMEM) (1:1) supplemented with 10% foetal calf serum, 2 mM glutamine, insulin (10 μg/mL), hydrocortisone (500 ng/mL) and epidermal growth factor (20 ng/mL). Trypsin ethylenediamine tetra acetic acid (EDTA) was used to passage the cells after every 2-3 days. 96-well flat-bottomed cell culture plates were used to seed the cells at a density of 10^4 cells mL-1. The medium was aspirated from all the wells of culture plates after 24 h followed by the addition of synthesized compounds (in 200 μL medium to yield a final concentration of 0.1% (v/v) dimethyl sulfoxide) into individual wells of the plates. Four wells were designated to a single compound. The plates were allowed to incubate at 37°C for 96 h. Afterwards, the medium was aspirated and 3-[4,5-dimethylthiazol-2-yl]-2,5-diphenyltetrazolium bromide (MTT) (0.4 mg/mL) in medium was added to each well and subsequently incubated for 3 h. The medium was aspirated and 150 μL dimethyl sulfoxide (DMSO) was added to each well. The plates were vortexed followed by the measurement of absorbance at 540 nm on a microplate reader. The results were presented as inhibition (%) of proliferation in contrast to controls comprising 0.1%

Data set [3] has as its system HT-29 cells. Nature of the data set: Antiproliferative assay, HT-29. Particulars: Homo sapiens; HT-29 colon cancer cell line; read-out: Antiproliferative activity IC50 ± SEM, HT-29. The format is cell-based. The method, then:
as §1, §2, §3

Data set [4] has as its system MCF-7 cells. Nature of the data set: Antiproliferative assay, MCF-7. The format is cell-based. Particulars: Homo sapiens, MCF7; MCF-7 breast cancer cell line; read-out: Antiproliferative activity IC50 ± SEM, MCF-7. The method, then:
as §1, §2, §3

The subject of data set [5] is Panc-1 cells. Nature of the data set: Antiproliferative assay, Panc-1. Format: cell-based. As to conditions: Homo sapiens; Panc-1 pancreatic cancer cell line; read-out: Antiproliferative activity IC50 ± SEM, Panc-1. The method, then:
as §1, §2, §3

Data set [6] deals with four human cancer cell lines (A-549, MCF-7, Panc-1, HT-29). Nature of the data set: Antiproliferative assay, average over four cancer cell lines (GI50). Format: cell-based. As to conditions: for IC50: Homo sapiens, average of IC50 against A-549, MCF-7, Panc-1, HT-29. The method, then: See Supplementary Appendix SA1 for more details.
as §1
To explore the antiproliferative potential of compounds propidium iodide fluorescence assay was performed using different cell lines such as Panc-1 (pancreas cancer cell line), MCF-7 (breast […]
respectively. To calculate the total nuclear DNA, a fluorescent dye (propidium iodide, PI) is used which can attach to the DNA, thus offering a quick and precise technique. PI cannot pass through the cell membrane and its signal intensity can be considered as directly proportional to quantity of cellular DNA. Cells whose cell membranes are damaged or have changed permeability are counted as dead ones. The assay was performed by seeding the cells of different cell lines at a density of […]
The medium was removed; the compounds were added to the plates at 10 μM concentrations (in 0.1% DMSO) in triplicates, followed by incubation for 48h. DMSO (0.1%) was used as control. After incubation, medium was removed followed by the addition of PI (25 μl, 50μg/mL in water/medium) to each well of the plates. At - 80 °C, the plates were allowed to freeze for 24 h, followed by thawing at 25 °C. A fluorometer (Polar-Star BMG Tech) was used to record the readings at excitation and emission wavelengths of 530 and 620 nm for each well. The percentage cytotoxicity of compounds was calculated using […]
Where ATC= Absorbance of treated cells and AC= Absorbance of control. […]
positive control in the assay.

Data set [7] concerns the target T1, aromatase (CYP19) (Homo sapiens, UniProt P11511).
T1 sequence (P11511 1-503): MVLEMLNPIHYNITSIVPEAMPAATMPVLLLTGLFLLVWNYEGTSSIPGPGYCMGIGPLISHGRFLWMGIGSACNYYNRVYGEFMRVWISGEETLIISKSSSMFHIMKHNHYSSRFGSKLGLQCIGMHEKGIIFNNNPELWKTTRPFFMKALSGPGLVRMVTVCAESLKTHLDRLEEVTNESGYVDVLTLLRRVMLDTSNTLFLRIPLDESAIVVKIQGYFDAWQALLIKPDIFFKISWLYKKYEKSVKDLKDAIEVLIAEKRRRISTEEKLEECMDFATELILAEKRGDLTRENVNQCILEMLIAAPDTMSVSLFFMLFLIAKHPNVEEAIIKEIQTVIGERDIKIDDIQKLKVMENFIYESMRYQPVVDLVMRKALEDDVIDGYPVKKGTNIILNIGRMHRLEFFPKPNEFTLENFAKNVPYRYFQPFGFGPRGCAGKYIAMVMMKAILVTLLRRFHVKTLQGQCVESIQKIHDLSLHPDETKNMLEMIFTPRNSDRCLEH
Nature of the data set: Aromatase inhibitory assay (Gentest kit, DBF fluorometric substrate).
Description: The aromatase inhibitory effect was performed using the method reported by Stressor et al.[35].
This method was carried out according to the Gentest kit using CYP19 enzyme and DBF as a
fluorometric substrate. DBF was dealkylated by aromatase and then hydrolyzed to give the
fluorescein product. Briefly, 100 μL of cofactor, containing 78.4 μL of 50 mM phosphate buffer
(pH 7.4); 20 μL of 20x NADPH-generating system (26 mM NADP+, 66 mM glucose-6-phosphate,
and 66 mM MgCl2); and 1.6 μL of 100 U/mL glucose-6-phosphate dehydrogenase, was pipetted
into a 96-well plate and preincubated in 37 °C (water bath) for 10 min. The reaction was initiated
by addition of 100 μL of enzyme/substrate mixture containing 77.3 μL of 50 mM
phosphate buffer (pH 7.4); 12.5 μL of 16 pmol/mL CYP19; 0.2 μL of 0.2 mM DBF, and 10 μL of
0.25 mM diluted tested sample or 10% DMSO as a negative control or letrozole as a positive
control. Fluorescence signal was recorded using an excitation wavelength of 490 nm and emission
Percentage of inhibition (%inhibition) was calculated
as shown in Equation (1).
assayed in triplicate. Finally, IC50 values were determined by plot of concentrations versus %

As to `CCc1c(C(=O)NC(C(=O)OCc2ccccc2)C(C)O)[nH]c2ccc(Cl)cc12` (stereo not shown) [Compound 3, Benzyl 2-(5-chloro-3-ethyl-1H-indol-2-carboxamido)-3-hydroxybutanoate], the IC50 in data set [1] came out at 57 ± 5 nM; in data set [3] it was 60 ± 5 nM; in data set [4] it was 62 ± 5 nM; in data set [5] it was 58 ± 5 nM; in data set [6], 59 nM. For the same molecule, in data set [2], the viability at 4 days, 50 µM amounted to 91%.

Turning to `CCc1c(C(=O)NC(C(C)=O)C(=O)OCc2ccccc2)[nH]c2ccc(Cl)cc12` (stereo not shown) [Compound 4, benzyl 2-(5-chloro-3-ethyl-1h-indol-2-carboxamido)-3-oxobutanoate], the IC50 in data set [1] worked out at 59 ± 5 nM; in data set [3], 64 ± 6 nM; in data set [4], 65 ± 6 nM; in data set [5], 60 ± 5 nM; in data set [6], 62 nM. Also, the viability at 4 days, 50 µM in data set [2] came to 89%.

Molecule `CCc1c2cc(Cl)ccc2n2c(C)c(C(=O)O)[nH]c(=O)c12` [Compound 6, 8-chloro-10-ethyl-4-methyl-1-oxo-1,2-dihydropyrazino [1,2-a]indole-3-carboxylic acid] had a melting point of 270 to 272 °C. In data set [1], the IC50 worked out at 65 ± 6 nM. The viability at 4 days, 50 µM in data set [2] was found to be 92%. For the same molecule, the IC50 in data set [3] came out at 66 ± 6 nM. Further, in data set [4], the IC50 was 68 ± 6 nM. In data set [5], the IC50 was determined as 64 ± 6 nM. Inhibition in data set [6] was half-maximal at 66 nM (IC50).

As to `CCOC(=O)C(Cc1ccccc1)NC(=O)c1[nH]c2ccc(Cl)cc2c1CC` (stereo not shown) [Compound 8, ethyl 2-(5-chloro-3-ethyl-1h-indole-2-carboxamido)-3-phenylpropanoate], the IC50 was found to be 37 ± 3 nM in data set [1]; 38 ± 3 nM in data set [3]; 40 ± 3 nM in data set [4]; 37 ± 3 nM in data set [5]; 33 ± 3 nM in data set [7]; 38 nM in data set [6]. The viability at 4 days, 50 µM in data set [2] was determined as 92%.

`CCc1c2n(c3ccc(Cl)cc13)C(=O)C(Cc1ccccc1)NC2=O` (stereo not shown) [Compound 9, 3-benzyl-8-chloro-10-ethyl-2,3-dihydropyrazino [1,2-a] indole-1,4-dione] displayed a melting point of 196 to 198 °C. The IC50 in data set [1] came to 48 ± 4 nM. Also, the viability at 4 days, 50 µM in data set [2] amounted to 91%. Also, in data set [3], the IC50 amounted to 50 ± 5 nM. For the same molecule, the IC50 in data set [4] stood at 50 ± 4 nM. The IC50 in data set [5] is 47 ± 4 nM. This molecule also yielded an IC50 in data set [6] of 49 nM.

Molecule `CCc1c2n(c3ccc(Cl)cc13)C(O)C(Cc1ccccc1)NC2=O` (stereo not shown) [Compound 10, 3-benzyl-8-chloro-10-ethyl-4-hydroxy-3,4-dihydropyrazino [1,2-a] indol-1(2H)-one] displayed a melting point of 160 to 162 °C. Besides, the IC50 in data set [1] turned out to be 53 ± 5 nM. In addition, the viability at 4 days, 50 µM in data set [2] amounted to 89%. Besides, the IC50 in data set [3] was 54 ± 5 nM. The IC50 in data set [4] is 56 ± 5 nM. Besides, the IC50 in data set [5] came out at 54 ± 5 nM. Besides, the IC50 in data set [6] worked out at 54 nM.

For the molecule `CCc1c2cc(Cl)ccc2n2cc(Cc3ccccc3)[nH]c(=O)c12` [Compound 11, 3-Benzyl-8-chloro-10-ethylpyrazino[1,2-a]indol-1(2H)-one], the concentration for half-maximal inhibition (IC50) amounted to 40 ± 4 nM in data set [1]; 42 ± 4 nM in data set [3]; 43 ± 4 nM in data set [4]; 40 ± 4 nM in data set [5]; 41 nM in data set [6]. The molecule also gave a viability at 4 days, 50 µM in data set [2] of 92%. Also, the “Fold less potent than compound 12 (GI50)” value in data set [6] amounted to 1.7 fold.

Consider `CCc1c(C(=O)NC(C(=O)OC)c2ccccc2)[nH]c2ccc(Cl)cc12` (stereo not shown) [Compound 13, Methyl 2-(5-chloro-3-ethyl-1h-indole-2-carboxamido)-2-phenylacetate], for which the melting point lay within 210 to 212 °C. Further, the IC50 in data set [1] worked out at 34 ± 3 nM. The viability at 4 days, 50 µM in data set [2] turned out to be 91%. Moreover, the IC50 in data set [3] came to 34 ± 3 nM. In data set [4], the IC50 was found to be 36 ± 3 nM. For the same molecule, the IC50 in data set [5] was determined as 35 ± 3 nM. In data set [7], this molecule displayed an IC50 of 28 ± 2 nM. Besides, in data set [6], half-maximal inhibition (IC50) required 35 nM.

In the case of `CCc1c2n(c3ccc(Cl)cc13)C(=O)C(c1ccccc1)NC2=O` (stereo not shown) [Compound 14, 8-Chloro-10-ethyl-3-phenyl-2,3-dihydropyrazino [1,2-a] indole-1,4-dione], the melting point was in the range of 202 to 204 °C. In data set [1], the IC50 was determined as 44 ± 4 nM. The viability at 4 days, 50 µM in data set [2] is 90%. In data set [3], the IC50 was 46 ± 4 nM. Also, in data set [4], the IC50 turned out to be 46 ± 4 nM. Further, the 50% inhibitory concentration (IC50) in data set [5] came out at 44 ± 4 nM. In data set [6], the IC50 is 45 nM.

`CCc1c2n(c3ccc(Cl)cc13)C(O)C(c1ccccc1)NC2=O` (stereo not shown) [Compound 15, 8-Chloro-10-ethyl-4-hydroxy-3-phenyl-3,4-dihydropyrazino [1,2-a] indol-1(2H)-one] registered a melting point of 213 to 215 °C. Moreover, the IC50 in data set [1] was 69 ± 6 nM. In data set [2], this molecule had a viability at 4 days, 50 µM of 92%. The IC50 in data set [3] came to 74 ± 7 nM. In data set [4], the IC50 came to 76 ± 7 nM. The IC50 in data set [5] amounted to 72 ± 7 nM. The molecule further gave an IC50 in data set [6] of 72 nM.

For `C#Cc1cccc(Nc2ncnc3cc(OCCOC)c(OCCOC)cc23)c1` [Erlotinib, reference compound], the IC50 in data set [1] stood at 30 ± 3 nM; in data set [3], 30 ± 3 nM; in data set [4], 40 ± 3 nM; in data set [5], 30 ± 3 nM.

These data come from PMC11414412, “Design and synthesis new indole-based aromatase/iNOS inhibitors with apoptotic antiproliferative activity” (Frontiers in Chemistry, 2024).
